Assay type in all cases: cell-based
In assay [1] the test system is human melanoma cells A375 (with a mutated B-RAF). Briefly: In vitro cell proliferation assay, A375. The following applies: A-375, 72 hours treatment, cellular ATP readout. As for the experimental part: (§1) In Vitro Cell Proliferation Assay
(§2) Exponentially growing human melanoma cells A375 (with a mutated B-RAF) and human melanoma cells Mewo (with wild-type B-Raf) were seeded and incubated at 37° C. in a humidified 5% CO2 atmosphere. After 24 hours, scalar doses of the compound were added to the medium and cells oncubated for 72 hours. At the end of treatment, cells were washed and counted. Cell number was determined by a cellular adenosine triphosphate monitoring system. Cell proliferation was compared to control cells and the concentration inhibiting cell growth by 50% was calculated.

Assay [2] deals with human melanoma cells Mewo (with wild-type B-Raf). Nature of the assay: In vitro cell proliferation assay, Mewo. Conditions: 72 hours treatment, cellular ATP readout. How it is done: as §1, §2
The subject of assay [3] is p-MAPK (T202/Y204) in A375 human melanoma cells, having a mutated B-RAF. Nature of the assay: p-MAPK (T202/Y204) ArrayScan assay. Conditions: A-375, treated 1.5 or 2 hours, p-MAPK cytoplasmatic fluorescence, read-out: Array Scan A375 IC50. How it is done: p-MAPK (T202/Y204) ArrayScan Assay
A375 human melanoma cells, having a mutated B-RAF, are seeded in 384-well poly-lysine coated plates (Matrix) at a density of 1000 cells/well with appropriate medium supplemented with 10% FCS and incubated for 16-24 hours. Cells are treated for 1.5 or 2 hours with increasing doses of compounds (starting dose 10 μM, dilution factor 2.5). At the end of the treatment cells are fixed with p-formaldehyde 3.7% for 15-30 min, then washed twice with D-PBS […] and permeabilized with D-PBS containing 0.1% Triton X-100 and 1% BSA (Sigma-Aldrich) for 15 minutes at room temperature (staining solution). Anti-phospho-MAPK (T202/Y204) monoclonal antibody E10 (Cell Signaling, cat. #9106) diluted 1:100 is added in staining solution and incubated for 1 hour at 37° C. After removal of the primary antibody solution, the anti-mouse Cy™2-conjugated (Green) secondary antibody (Amersham) diluted 1:500 in staining solution containing 2 μg/ml DAPI is added. The plate is incubated for 1 hour at 37° C., washed twice and then red with Cellomics' ArrayScan VTI (4 fields/well, CytoNucTrans algorithm).
The parameter “MEAN_RingAvgIntenCh2”, which measures the mean cytoplasmatic fluorescence intensity associated to p-MAPK staining, is reported as the final result.

As to `Nc1nccc(-c2c[nH]nc2-c2cccc(NC(=O)Nc3ccc(C(F)(F)F)cc3)c2)n1` [compound 31, 1-{3-[4-(2-aminopyrimidin-4-yl)-1H-pyrazol-3-yl]phenyl}-3-[4-(trifluoromethyl)-phenyl]urea], the IC50 (as a rule, the concentration at which inhibition is half-maximal) was 2.7 µM in assay [1], more than 10 µM in assay [2] and 0.73 µM in assay [3].
Taken in the same sequence, the figures for `CC(=O)Nc1nccc(-c2c[nH]nc2-c2cccc(NC(=O)Nc3ccc(C(F)(F)F)cc3)c2)n1` [compound 32, N-(4-{3-[3-({[4-(trifluoromethyl)phenyl]carbamoyl}amino)phenyl]-1H-pyrazol-4-yl}pyrimidin-2-yl)acetamide] were 5.32 µM, more than 10 µM and 2.51 µM.
Taken in the same sequence, the figures for `Nc1nccc(-c2c[nH]nc2-c2cccc(NS(=O)(=O)c3cc(F)ccc3F)c2)n1` [compound 34, N-{3-[4-(2-aminopyrimidin-4-yl)-1H-pyrazol-3-yl]phenyl}-2,5-difluorobenzene-sulfonamide] were 3.18 µM, more than 10 µM and 0.34 µM.
Taken in the same sequence, the figures for `CCC(=O)Nc1cc(-c2c[nH]nc2-c2cccc(NC(=O)Nc3ccc(C(F)(F)F)cc3)c2)ccn1` [compound 39, N-(4-{3-[3-({[4-(trifluoromethyl)phenyl]carbamoyl}amino)phenyl]-1H-pyrazol-4-yl}pyridin-2-yl)propanamide] were 1.14 µM, more than 10 µM and 2.32 µM.
`CC(C)C(=O)Nc1cc(-c2c[nH]nc2-c2cccc(NC(=O)Nc3ccc(C(F)(F)F)cc3)c2)ccn1` [compound 40, 2-methyl-N-(4-{3-[3-({[4-(trifluoromethyl)phenyl]carbamoyl}amino)phenyl]-1H-pyrazol-4-yl}pyridin-2-yl)propanamide]: the results for the IC50 in assay [1], in assay [2] and in assay [3] were 3.63 µM, more than 10 µM and 1.75 µM, respectively.
Taken in the same sequence, the figures for `O=C(CCCO)Nc1cc(-c2c[nH]nc2-c2cccc(NC(=O)Nc3ccc(C(F)(F)F)cc3)c2)ccn1` [compound 43, 4-hydroxy-N-(4-{3-[3-({[4-(trifluoromethyl)phenyl]carbamoyl}amino)phenyl]-1H-pyrazol-4-yl}pyridin-2-yl)butanamide] were 3.5 µM, more than 10 µM and 0.41 µM.
The matching figures for `CCCCn1cc(-c2ccncc2)c(-c2cccc(NC(=O)Nc3ccc(C(F)(F)F)cc3)c2)n1` [compound 49, 1-[3-(1-Butyl-4-pyridin-4-yl-1H-pyrazol-3-yl)-phenyl]-3-(4-trifluoromethyl-phenyl)-urea]: 2.61 µM, 4.54 µM and 1.59 µM.
Taken in the same sequence, the figures for `Cn1cc(-c2ccncc2)c(-c2c(F)ccc(NS(=O)(=O)c3cc(F)ccc3F)c2F)n1` [compound 52, N-[3-(1-Methyl-4-pyridin-4-yl-1H-pyrazol-3-yl)-2,4-difluoro-phenyl]-2,5-difluoro-benzenesulfonamide] were 0.16 µM, more than 10 µM and less than 0.01 µM.
For `CNc1cc(-c2c[nH]nc2-c2c(F)ccc(NS(=O)(=O)c3cc(F)ccc3F)c2F)ccn1` [compound 53, N-{2,4-Difluoro-3-[4-(2-methylamino-pyridin-4-yl)-1H-pyrazol-3-yl]-phenyl}-2,5-difluoro-benzenesulfonamide], the IC50 in assay [1] is 1.75 µM; in assay [2] it was more than 10 µM; in assay [3], 0.87 µM.
The matching figures for `CCNc1cc(-c2c[nH]nc2-c2c(F)ccc(NS(=O)(=O)c3cc(F)ccc3F)c2F)ccn1` [compound 54, N-{3-[4-(2-Ethylamino-pyridin-4-yl)-1H-pyrazol-3-yl]-2,4-difluoro-phenyl}-2,5-difluoro-benzenesulfonamide]: 0.97 µM, more than 10 µM and 0.31 µM.
Taken in the same sequence, the figures for `CCNc1nccc(-c2c[nH]nc2-c2cccc(NS(=O)(=O)c3cc(F)ccc3F)c2)n1` [compound 55, N-(3-{4-[2-(ethylamino)pyrimidin-4-yl]-1H-pyrazol-3-yl}phenyl)-2,5-difluorobenzenesulfonamide] were 1.25 µM, more than 10 µM and 0.17 µM.
Turning to `CC(C)Cn1cc(-c2ccncc2)c(-c2c(F)ccc(NS(=O)(=O)c3cc(F)ccc3F)c2F)n1` [compound 56, N-[3-(1-i-Butyl-4-pyridin-4-yl-1H-pyrazol-3-yl)-2,4-difluoro-phenyl]-2,5-difluoro-benzenesulfonamide], the IC50 in assay [1] is less than 0.02 µM; in assay [2], more than 10 µM; in assay [3], less than 0.01 µM.
